In experiment [1] the target is HIV-1 RT enzyme (wild-type) (Human immunodeficiency virus type 1 group M subtype B, UniProt P04585). The experiment can be described thus: ECL assay for inhibition of HIV reverse transcriptase (WT). In kind it is biochemical. On the procedure:
(§1) 100 μL reaction mixtures were initiated with a combination of primer-template substrate ([…]) and dNTPs (0.6 μM dNTPs, 1.25 μM BrdUTP). The heterodimeric nucleic acid substrate was generated by annealing the DNA primer pD500 (described in Shaw-Reid et al., J. Biol. Chem., 278: 2777-2780; obtained from Integrated DNA Technologies) to t500, a 500 nucleotide RNA template created by in vitro transcription (see Shaw-Reid et al., J. Biol. Chem., 278: 2777-2780). After 1 hour incubation at 37° C., reactions were quenched by 10 μL of 1 N NaOH. Microtiter plates were incubated for an additional 30 minutes at room temperature and then neutralized with 10 μL of 1 N HCl. A mixture of detection buffer containing ruthenylated anti-BrdU antibody and streptavidin coated magnetic beads were added to the plate and incubated at room temperature for 1.5 hours prior to quantification via electrochemiluminescence instrument.

Experiment [2] deals with T1, mutant HIV reverse transcriptase (K103N mutation) (Human immunodeficiency virus type 1 group M subtype B, UniProt P04585, K690N).
T1 construct: against mutant HIV reverse transcriptase; made in house
The experiment can be described thus: ECL assay for inhibition of mutant HIV reverse transcriptase (K103N). Type of experiment: biochemical. How it is done:
as §1
(§2) Analogous assays were conducted substituting mutant HIV strains to determine the in vitro inhibition of compounds of the present invention against mutant HIV reverse transcriptase. In one strain the reverse transcriptase has the Y181C mutation and in the other strain the reverse transcriptase has the K103N mutation. The mutations were generated with the QUIKCHANGE site-directed mutagenesis kit (Stratagene).

In experiment [3] the target is T2, mutant HIV reverse transcriptase (Y181C mutation) (Human immunodeficiency virus type 1 group M subtype B, UniProt P04585, Y768C).
T2 construct: against mutant HIV reverse transcriptase; made in house
The experiment can be described thus: ECL assay for inhibition of mutant HIV reverse transcriptase (Y181C). Type of experiment: biochemical. On the procedure:
as §1, §2

A further experiment concerns wild type HIV-1. The experiment can be described thus: Spread assay: inhibition of acute HIV-1 infection of T-lymphoid cells (WT). In kind it is cell-based. Conditions: Human immunodeficiency virus 1, T-lymphoid; wild-type strain; 10% FBS; read-out: Spread (WT) CIC95. On the procedure:
(§3) Assays for the inhibition of acute HIV-1 infection of T-lymphoid cells (alternatively referred to herein as the “spread assay”) were conducted in accordance with Vacca, J. P. et al., Proc. Natl. Acad. Sci. USA 1994, 91: 4096. The assays tested for inhibition of wild type HIV-1 and of HIV strains containing the Y181C or K103N mutation. […] The compounds of Examples 1 to 4 had CIC95 values of less than 10 micromolar in the assay employing the K103N mutant strain. […] Table C also reports the CIC95 values of the compounds of Examples 1-7, 9-13 and 15-29 obtained in the assays employing the Y181C mutant strain and the K103N mutant strain.

For experiment [4], the system named is HIV strain containing the K103N mutation. Briefly: Spread assay: inhibition of HIV replication (K103N mutant strain). Type of experiment: cell-based. The conditions noted are these: Human immunodeficiency virus 1, read-out: Spread (K103N) CIC95. On the procedure:
as §3

In experiment [5] the test system is HIV strain containing the Y181C mutation. The experiment can be described thus: Spread assay: inhibition of HIV replication (Y181C mutant strain). The conditions noted are these: Human immunodeficiency virus 1, read-out: Spread (Y181C) CIC95. Type of experiment: cell-based. How it is done:
as §3

The mark [6] stands for this setting: K103N mutant RT, read-out: ECL Assay (K103N) IC50.
Setting [7] is: Y181C mutant RT, read-out: ECL Assay (Y181C) IC50.

The structures appear in SMILES notation. Where a name gives a salt, the structure may show the parent alone. Read-outs that look alike come from different tables or passages of the source.

For orientation: IC50 means the concentration at which inhibition is half-maximal. With `N#Cc1cc(Cl)cc(Oc2c(Cl)ccc3c2nnn3CC(=O)Nc2ccccc2Cl)c1` [Example 12, 2-[5-chloro-4-(3-chloro-5-cyanophenoxy)-1H-1,2,3-benzotriazol-1-yl]-N-(2-chlorophenyl)acetamide], the 50% inhibitory concentration (IC50) in experiment [1] was found to be 0.45 nM; in experiment [2] (setting [6]) it was 0.94 nM; in experiment [3] (setting [7]), 0.89 nM. Moreover, the IC95 with wild type HIV-1 was 23 nM; in experiment [4] it was 41 nM; in experiment [5] it was 137 nM.

As to `N#Cc1cc(Cl)cc(Oc2c(Cl)ccc3c2ncn3Cc2n[nH]c3nc(N)ccc23)c1` [Example 10, 3-({1-[(6-amino-1H-pyrazolo[3,4-b]pyridin-3-yl)methyl]-5-chloro-1H-benzimidazol-4-yl}oxy)-5-chlorobenzonitrile bis(trifluoroacetate)], the figures for the IC50 in experiment [1], in experiment [2] and in experiment [3] were 1.5 nM, 13 nM and 13 nM, respectively. In addition, the results for the IC95 (in the experiment with wild type HIV-1; in experiment [4]; in experiment [5]) were 21 nM, 85 nM and 468 nM, respectively.

Turning to `N#Cc1cc(Cl)cc(Oc2c(Cl)ccc3c2nnn3Cc2n[nH]c3ncccc23)c1Cl` [Example 19, 2,5-dichloro-3-{[5-chloro-1-(1H-pyrazolo[3,4-b]pyridin-3-ylmethyl)-1H-1,2,3-benzotriazol-4-yl]oxy}benzonitrile], the IC50 is 0.57 nM in experiment [1], 0.93 nM in experiment [2] (setting [6]) and 0.77 nM in experiment [3] (setting [7]). Further, the results for the IC95 (with wild type HIV-1; in experiment [4]; in experiment [5]) were 7 nM, 15 nM and 27 nM, respectively.

For the compound `N#Cc1cc(Cl)cc(Oc2c(Cl)ccc3c2nnn3CC(=O)Nc2ccncc2C(F)(F)F)c1` [Example 13, 2-[5-chloro-4-(3-chloro-5-cyanophenoxy)-1H-1,2,3-benzotriazol-1-yl]-N-[3-(trifluoromethyl)pyridin-4-yl]acetamide], the IC50 in experiment [1] was 1 nM; in experiment [2] (setting [6]) it was 3 nM; in experiment [3] (setting [7]), 2.4 nM. Besides, the IC95 is 45 nM with wild type HIV-1, 151 nM in experiment [4] and 382 nM in experiment [5].

On to `O=Cc1cc(Cl)cc(Oc2c(Cl)ccc3c2nnn3Cc2n[nH]c3ncccc23)c1` [Example 18, 3-chloro-5-{[5-chloro-1-(1H-pyrazolo[3,4-b]pyridin-3-ylmethyl)-1H-1,2,3-benzotriazol-4-yl]oxy}benzaldehyde], for which the IC50 stood at 2.1 nM in experiment [1], 2.6 nM in experiment [2] (setting [6]) and 3.7 nM in experiment [3] (setting [7]). Besides, the IC95 in the experiment with wild type HIV-1 was 55 nM; in experiment [4], 154 nM; in experiment [5], 825 nM.

Consider `NCc1cc(Cl)cc(Oc2c(Cl)ccc3c2nnn3Cc2n[nH]c3ncccc23)c1` [Example 17, (3-chloro-5-{[5-chloro-1-(1H-pyrazolo[3,4-b]pyridin-3-ylmethyl)-1H-1,2,3-benzotriazol-4-yl]oxy}phenyl)methanaminium trifluoroacetate], for which the IC50 is 38 nM in experiment [1], 79 nM in experiment [2] and 74 nM in experiment [3]. For the same compound, the IC95 is 60 nM in the experiment on wild type HIV-1, 262 nM in experiment [4] and more than 833 nM in experiment [5].

On to `N#Cc1cc(Cl)cc(Oc2c(Cl)ccc3c2cnn3Cc2n[nH]c3ncccc23)c1` [Example 1, 3-Chloro-5-{[5-chloro-1-(1H-pyrazolo[3,4-b]pyridin-3-ylmethyl)-1H-indazol-4-yl]oxy}benzonitrile], for which the IC50 in experiment [1] was 0.35 nM; in experiment [2] (setting [6]), 0.57 nM; in experiment [3] (setting [7]), 0.6 nM. Also, the IC95 in the experiment with wild type HIV-1 was found to be 13 nM; in experiment [4], 17 nM; in experiment [5], 69 nM.

On to `N#Cc1cc(Cl)cc(Oc2c(Cl)ccc3c2nnn3Cc2n[nH]c3nc(N)ccc23)c1` [Example 6, 3-({1-[(6-amino-1H-pyrazolo[3,4-b]pyridin-3-yl)methyl]-5-chloro-1H-1,2,3-benzotriazol-4-yl}oxy)-5-chlorobenzonitrile], for which the IC50 came out at 0.4 nM in experiment [1], 0.53 nM in experiment [2] (setting [6]) and 0.82 nM in experiment [3] (setting [7]). Further, the IC95 in the experiment with wild type HIV-1 was 3 nM; in experiment [4], less than 4 nM; in experiment [5], 25 nM.

Turning to `N#Cc1cc(Cl)cc(Oc2c(Cl)ccc3c2cnn3Cc2n[nH]c3c2ccc[n+]3[O-])c1` [Example 5, 3-chloro-5-({5-chloro-1-[(7-oxido-1H-pyrazolo[3,4-b]pyridin-3-yl)methyl]-1H-indazol-4-yl}oxy)benzonitrile], the IC50 in experiment [1] was 0.62 nM; in experiment [2] (setting [6]), 1.3 nM; in experiment [3] (setting [7]), 1.8 nM. Besides, the values for the IC95 (with wild type HIV-1; in experiment [4]; in experiment [5]) were 11 nM, 23 nM and 105 nM, respectively.

The values above are taken from patent US7781454B2 (priority 2006, dated 2010).
